Test results taken from the NIST ThermoML archive (doi:10.1021/je060271a).
Numbers after ± are expanded uncertainties.

Conditions: 323.15 K, Liquid, Vibrating tube method

CCCCC(=O)OCC(COC(=O)CCCC)(COC(=O)CCCC)COC(=O)CCCC [pentaerythritol tetrapentanoate]
Conditions | mass density [kg/m3]
25366 kPa | 1011.6 ± 1.2
25395 kPa | 1011.5 ± 1.2
25431 kPa | 1011.6 ± 1.2
25460 kPa | 1011.6 ± 1.2
25495 kPa | 1011.6 ± 1.2
25525 kPa | 1011.6 ± 1.2
25555 kPa | 1011.6 ± 1.2
25590 kPa | 1011.6 ± 1.2
25620 kPa | 1011.7 ± 1.2
25651 kPa | 1011.7 ± 1.2
25684 kPa | 1011.7 ± 1.2
25714 kPa | 1011.8 ± 1.2
25750 kPa | 1011.8 ± 1.2
25780 kPa | 1011.9 ± 1.2
25817 kPa | 1011.9 ± 1.2
25847 kPa | 1011.7 ± 1.2
25878 kPa | 1011.8 ± 1.2
25908 kPa | 1012 ± 1.2
25945 kPa | 1011.9 ± 1.2
25976 kPa | 1011.9 ± 1.2
26007 kPa | 1011.9 ± 1.2
26044 kPa | 1011.9 ± 1.2
26076 kPa | 1011.8 ± 1.2
26107 kPa | 1012 ± 1.2
26145 kPa | 1012 ± 1.2
26176 kPa | 1012 ± 1.2
26208 kPa | 1012.1 ± 1.2
26245 kPa | 1012.1 ± 1.2
26277 kPa | 1012 ± 1.2
26308 kPa | 1012.1 ± 1.2
26346 kPa | 1012 ± 1.2
26378 kPa | 1012.2 ± 1.2
26410 kPa | 1012.2 ± 1.2
26448 kPa | 1012.2 ± 1.2
26480 kPa | 1012.3 ± 1.2
26512 kPa | 1012.2 ± 1.2
26551 kPa | 1012.2 ± 1.2
26584 kPa | 1012.3 ± 1.2
26617 kPa | 1012.3 ± 1.2
26656 kPa | 1012.3 ± 1.2
26689 kPa | 1012.2 ± 1.2
26722 kPa | 1012.4 ± 1.2
26754 kPa | 1012.4 ± 1.2
26794 kPa | 1012.3 ± 1.2
26826 kPa | 1012.3 ± 1.2
26860 kPa | 1012.3 ± 1.2
26900 kPa | 1012.5 ± 1.2
26933 kPa | 1012.5 ± 1.2
26967 kPa | 1012.4 ± 1.2
27007 kPa | 1012.6 ± 1.2
27041 kPa | 1012.5 ± 1.2
27075 kPa | 1012.5 ± 1.2
27109 kPa | 1012.6 ± 1.2
27150 kPa | 1012.7 ± 1.2
27183 kPa | 1012.7 ± 1.2
27218 kPa | 1012.7 ± 1.2
27258 kPa | 1012.7 ± 1.2
27292 kPa | 1012.6 ± 1.2
27327 kPa | 1012.6 ± 1.2
27362 kPa | 1012.7 ± 1.2
27404 kPa | 1012.7 ± 1.2
27440 kPa | 1012.7 ± 1.2
27475 kPa | 1012.8 ± 1.2
27510 kPa | 1012.9 ± 1.2
27552 kPa | 1012.9 ± 1.2
27586 kPa | 1012.9 ± 1.2
27628 kPa | 1012.9 ± 1.2
27663 kPa | 1012.9 ± 1.2
27698 kPa | 1012.9 ± 1.2
27733 kPa | 1012.9 ± 1.2
27776 kPa | 1013.1 ± 1.2
27811 kPa | 1013.1 ± 1.2
27847 kPa | 1013 ± 1.2
27890 kPa | 1013.1 ± 1.2
27926 kPa | 1013.1 ± 1.2
27968 kPa | 1013.1 ± 1.2
28005 kPa | 1013.1 ± 1.2
28041 kPa | 1013.1 ± 1.2
28077 kPa | 1013.2 ± 1.2
28122 kPa | 1013.2 ± 1.2
28158 kPa | 1013.1 ± 1.2
28195 kPa | 1013.3 ± 1.2
28238 kPa | 1013.2 ± 1.2
28276 kPa | 1013.3 ± 1.2
28313 kPa | 1013.4 ± 1.2
28357 kPa | 1013.2 ± 1.2
28396 kPa | 1013.3 ± 1.2
28435 kPa | 1013.4 ± 1.2
28472 kPa | 1013.4 ± 1.2
28511 kPa | 1013.4 ± 1.2
28557 kPa | 1013.5 ± 1.2
28595 kPa | 1013.5 ± 1.2
28633 kPa | 1013.5 ± 1.2
28672 kPa | 1013.6 ± 1.2
28719 kPa | 1013.5 ± 1.2
28798 kPa | 1013.6 ± 1.2
28964 kPa | 1013.6 ± 1.2
28998 kPa | 1013.7 ± 1.2
29025 kPa | 1013.8 ± 1.2
29053 kPa | 1013.7 ± 1.2
29087 kPa | 1013.7 ± 1.2
29115 kPa | 1013.8 ± 1.2
29143 kPa | 1013.8 ± 1.2
29325 kPa | 1013.9 ± 1.2
29354 kPa | 1014 ± 1.2
29388 kPa | 1013.9 ± 1.2
29418 kPa | 1014 ± 1.2
29452 kPa | 1014 ± 1.2
29480 kPa | 1013.9 ± 1.2
29509 kPa | 1014.1 ± 1.2
29544 kPa | 1014 ± 1.2
29573 kPa | 1014 ± 1.2
29602 kPa | 1014.1 ± 1.2
29638 kPa | 1014.2 ± 1.2
29667 kPa | 1014.1 ± 1.2
29697 kPa | 1014.1 ± 1.2
29733 kPa | 1014.2 ± 1.2
29762 kPa | 1014.2 ± 1.2
29792 kPa | 1014.2 ± 1.2
29822 kPa | 1014.1 ± 1.2
29857 kPa | 1014.2 ± 1.2
29886 kPa | 1014.2 ± 1.2
29917 kPa | 1014.3 ± 1.2
29952 kPa | 1014.3 ± 1.2
29982 kPa | 1014.4 ± 1.2
30012 kPa | 1014.3 ± 1.2
30049 kPa | 1014.4 ± 1.2
30078 kPa | 1014.4 ± 1.2
30109 kPa | 1014.5 ± 1.2
30146 kPa | 1014.5 ± 1.2
30177 kPa | 1014.4 ± 1.2
30208 kPa | 1014.5 ± 1.2
30238 kPa | 1014.4 ± 1.2
30275 kPa | 1014.4 ± 1.2
30306 kPa | 1014.5 ± 1.2
30342 kPa | 1014.6 ± 1.2
30373 kPa | 1014.5 ± 1.2
30404 kPa | 1014.6 ± 1.2
30435 kPa | 1014.6 ± 1.2
30472 kPa | 1014.7 ± 1.2
30504 kPa | 1014.6 ± 1.2
30535 kPa | 1014.7 ± 1.2
30573 kPa | 1014.7 ± 1.2
30604 kPa | 1014.7 ± 1.2
30641 kPa | 1014.6 ± 1.2
30673 kPa | 1014.7 ± 1.2
30705 kPa | 1014.8 ± 1.2
30742 kPa | 1014.7 ± 1.2
30774 kPa | 1014.9 ± 1.2
30806 kPa | 1014.9 ± 1.2
30838 kPa | 1014.8 ± 1.2
30876 kPa | 1014.9 ± 1.2
30908 kPa | 1014.9 ± 1.2
30947 kPa | 1014.9 ± 1.2
30979 kPa | 1014.9 ± 1.2
31012 kPa | 1014.9 ± 1.2
31051 kPa | 1014.9 ± 1.2
31084 kPa | 1015 ± 1.2
31116 kPa | 1015.1 ± 1.2
31149 kPa | 1015 ± 1.2
